Reference: patent US6525001B1, “Substituted pyrimidine and pyridine herbicides” (Mid-American Commercialization Corporation, priority 1997, dated 2003)

Tests used:
Assay in all cases: Test D
Assay type in all cases: in vivo
[1] = test system: green foxtail (Setaria viridis); set-up: key: 0 is no effect; 100 is complete control; conditions: PREEMERGENCE
[2] = test system: winter wheat (Triticum aestivum); conditions: PREEMERGENCE
[3] = test system: sunflower (Helianthus annuus); set-up: key: 0 is no effect; 100 is complete control; conditions: PREEMERGENCE
[4] = test system: lambsquarters (Chenopodium album); set-up: key: 0 is no effect; 100 is complete control; conditions: PREEMERGENCE
[5] = test system: jointed goatgrass (Aegilops cylindrica); conditions: POSTEMERGENCE
Description: (§1) Compounds evaluated in this test were formulated in a non-phytotoxic solvent mixture which included a surfactant and applied to plants that were in the 1- to 4-leaf stage (postemergence application). A mixture of sandy loam soil and greenhouse potting mix in a 60:40 ratio was used for the postemergence test.
(§2) Plantings of these crops and weed species were adjusted to produce plants of appropriate size for the postemergence test. All plant species were grown using normal greenhouse practices. Crop and weed species include alfalfa (Medicago sativa), annual bluegrass (Poa annua), blackgrass (Alopecurus myosuroides), black nightshade (Solanum nigra), chickweed (Stellaria media), common poppy (Papaver rhoeas), deadnettle (Lamium amplexicaule), downy brome (Bromus tectorum), field violet (Viola arvensis), galium 2 (Galium aparine), green foxtail (Setaria viridis), Italian ryegrass (Lolium multiflorum), jointed goatgrass (Aegilops cylindrica), kochia (Kochia scoparia), lambsquarters (Chenopodium album), lentil (Lens culinaris), littleseed canarygrass (Phalaris minor), pea (Pisum sativum), potato (Solanum tuberosum), rape (Brassica napus), redroot pigweed (Amaranthus retroflexus), Russian thistle (Salsola kali), scentless chamomile (Matricaria inodora), sorghum (Sorghum vulgare), spring barley (Hordeum vulgare), sugar beet (Beta vulgaris), sunflower (Helianthus annuus), ivyleaf speedwell (Veronica hederaefolia), spring wheat (Triticum aestivum), winter wheat (Triticum aestivum), wild buckwheat (Polygonum convolvulus), wild mustard (Sinapis arvensis), wild oat (Avena fatua), windgrass (Apera spica-venti) and winter barley (Hordeum vulgare).
(§3) Treated plants and untreated controls were maintained in a greenhouse for approximately 21 to 28 days, after which all treated plants were compared to untreated controls and visually evaluated. Plant response ratings, summarized in Table D, are based upon a 0 to 100 scale where 0 is no effect and 100 is complete control. A dash response (−) means no test result.

[6] = test system: spring barley (Hordeum vulgare); conditions: POSTEMERGENCE
Description: as §1, §2, §3

wild oat (Avena fatua) = conditions: POSTEMERGENCE
Description: as §1, §2, §3

[7] = test system: winter wheat (Triticum aestivum); conditions: POSTEMERGENCE
Description: as §1, §2, §3

[8] = test system: annual bluegrass (Poa annua); conditions: POSTEMERGENCE
Description: as §1, §2, §3

[9] = test system: sunflower (Helianthus annuus); conditions: POSTEMERGENCE
Description: as §1, §2, §3

[10] = test system: downy brome (Bromus tectorum); conditions: POSTEMERGENCE
Description: as §1, §2, §3

[11] = test system: spring wheat (Triticum aestivum); conditions: POSTEMERGENCE
Description: as §1, §2, §3

[12] = test system: Italian ryegrass (Lolium multiflorum); conditions: POSTEMERGENCE
Description: as §1, §2, §3

[13] = test system: windgrass (Apera spica-venti); conditions: POSTEMERGENCE
Description: as §1, §2, §3

[14] = test system: scentless chamomile (Matricaria inodora); conditions: POSTEMERGENCE
Description: as §1, §2, §3

[15] = test system: blackgrass (Alopecurus myosuroides); conditions: POSTEMERGENCE
Description: as §1, §2, §3

[16] = test system: winter barley (Hordeum vulgare); conditions: POSTEMERGENCE
Description: as §1, §2, §3

[17] = test system: littleseed canarygrass (Phalaris minor); conditions: POSTEMERGENCE
Description: as §1, §2, §3

[18] = test system: green foxtail (Setaria viridis); conditions: POSTEMERGENCE
Description: as §1, §2, §3

kochia (Kochia scoparia) = conditions: POSTEMERGENCE
Description: as §1, §2, §3

[19] = test system: galium 2 (Galium aparine); conditions: POSTEMERGENCE
Description: as §1, §2, §3

[20] = test system: redroot pigweed (Amaranthus retroflexus); conditions: POSTEMERGENCE
Description: as §1, §2, §3

[21] = test system: wild buckwheat (Polygonum convolvulus); conditions: POSTEMERGENCE
Description: as §1, §2, §3

Cc1cnc(-n2cnc(C(F)(F)F)n2)nc1Cn1ccc(C(F)(F)F)n1 [Compound 51]
Plant response rating, Green foxtail ([1]; Rate 31 g/ha): 100 | Plant response rating, Green foxtail ([1]; Rate 62 g/ha): 100 | Plant response rating, Wheat (winter) ([2]; Rate 31 g/ha): 30 | Plant response rating, Wheat (winter) ([2]; Rate 62 g/ha): 55 | Plant response rating, Sunflower ([3]; Rate 31 g/ha): 40 | Plant response rating, Sunflower ([3]; Rate 62 g/ha): 40 | Plant response rating, Lambsquarters ([4]; Rate 31 g/ha): 70 | Plant response rating, Lambsquarters ([4]; Rate 62 g/ha): 70

Cc1cnc(-n2ccc(C(F)(F)F)n2)nc1Cn1ccc(C(F)(F)F)n1 [Compound 52]
Plant response rating, Jointed goatgra ([5]; Rate 16 g/ha): 10 | Plant response rating, Jointed goatgra ([5]; Rate 31 g/ha): 10 | Plant response rating, Jointed goatgra ([5]; Rate 62 g/ha): 10 | Plant response rating, Jointed goatgra ([5]; Rate 125 g/ha): 10 | Plant response rating, Spring Barley ([6]; Rate 16 g/ha): 10 | Plant response rating, Spring Barley ([6]; Rate 31 g/ha): 10 | Plant response rating, Spring Barley ([6]; Rate 62 g/ha): 10 | Plant response rating, Spring Barley ([6]; Rate 125 g/ha): 10 | Plant response rating, Wild oat (wild oat (Avena fatua); Rate 16 g/ha): 10 | Plant response rating, Wild oat (wild oat (Avena fatua); Rate 31 g/ha): 10 | Plant response rating, Wild oat (wild oat (Avena fatua); Rate 62 g/ha): 10 | Plant response rating, Wild oat (wild oat (Avena fatua); Rate 125 g/ha): 10 | Plant response rating, Wheat (winter) ([7]; Rate 16 g/ha): 10 | Plant response rating, Wheat (winter) ([7]; Rate 31 g/ha): 10 | Plant response rating, Wheat (winter) ([7]; Rate 62 g/ha): 10 | Plant response rating, Wheat (winter) ([7]; Rate 125 g/ha): 10 | Plant response rating, Annual bluegras ([8]; Rate 16 g/ha): 10 | Plant response rating, Annual bluegras ([8]; Rate 31 g/ha): 20 | Plant response rating, Annual bluegras ([8]; Rate 62 g/ha): 20 | Plant response rating, Annual bluegras ([8]; Rate 125 g/ha): 50 | Plant response rating, Sunflower ([9]; Rate 16 g/ha): 40 | Plant response rating, Sunflower ([9]; Rate 31 g/ha): 20 | Plant response rating, Sunflower ([9]; Rate 62 g/ha): 50 | Plant response rating, Sunflower ([9]; Rate 125 g/ha): 70 | Plant response rating, Downy brome ([10]; Rate 16 g/ha): 10 | Plant response rating, Downy brome ([10]; Rate 31 g/ha): 20 | Plant response rating, Downy brome ([10]; Rate 62 g/ha): 20 | Plant response rating, Downy brome ([10]; Rate 125 g/ha): 20 | Plant response rating, Spring Wheat ([11]; Rate 16 g/ha): 10 | Plant response rating, Spring Wheat ([11]; Rate 31 g/ha): 10 | Plant response rating, Spring Wheat ([11]; Rate 62 g/ha): 10 | Plant response rating, Spring Wheat ([11]; Rate 125 g/ha): 10 | Plant response rating, I. Ryegrass ([12]; Rate 16 g/ha): 5 | Plant response rating, I. Ryegrass ([12]; Rate 31 g/ha): 10 | Plant response rating, I. Ryegrass ([12]; Rate 62 g/ha): 10 | Plant response rating, I. Ryegrass ([12]; Rate 125 g/ha): 10 | Plant response rating, Windgrass ([13]; Rate 16 g/ha): 10 | Plant response rating, Windgrass ([13]; Rate 31 g/ha): 10 | Plant response rating, Windgrass ([13]; Rate 62 g/ha): 20 | Plant response rating, Windgrass ([13]; Rate 125 g/ha): 50 | Plant response rating, Scentless chamo ([14]; Rate 16 g/ha): 30 | Plant response rating, Scentless chamo ([14]; Rate 31 g/ha): 50 | Plant response rating, Scentless chamo ([14]; Rate 62 g/ha): 60 | Plant response rating, Scentless chamo ([14]; Rate 125 g/ha): 70 | Plant response rating, Blackgrass ([15]; Rate 16 g/ha): 10 | Plant response rating, Blackgrass ([15]; Rate 31 g/ha): 10 | Plant response rating, Blackgrass ([15]; Rate 62 g/ha): 10 | Plant response rating, Blackgrass ([15]; Rate 125 g/ha): 10 | Plant response rating, Barley (winter) ([16]; Rate 16 g/ha): 10 | Plant response rating, Barley (winter) ([16]; Rate 31 g/ha): 10 | Plant response rating, Barley (winter) ([16]; Rate 62 g/ha): 10 | Plant response rating, Barley (winter) ([16]; Rate 125 g/ha): 10 | Plant response rating, LS canarygrass ([17]; Rate 16 g/ha): 10 | Plant response rating, LS canarygrass ([17]; Rate 31 g/ha): 10 | Plant response rating, LS canarygrass ([17]; Rate 62 g/ha): 10 | Plant response rating, LS canarygrass ([17]; Rate 125 g/ha): 20 | Plant response rating, Green foxtail ([18]; Rate 16 g/ha): 10 | Plant response rating, Green foxtail ([18]; Rate 31 g/ha): 10 | Plant response rating, Green foxtail ([18]; Rate 62 g/ha): 10 | Plant response rating, Green foxtail ([18]; Rate 125 g/ha): 30 | Plant response rating, Green foxtail ([1]; Rate 31 g/ha): 50 | Plant response rating, Green foxtail ([1]; Rate 62 g/ha): 80 | Plant response rating, Green foxtail ([1]; Rate 125 g/ha): 100 | Plant response rating, Wheat (winter) ([2]; Rate 31 g/ha): 50 | Plant response rating, Wheat (winter) ([2]; Rate 62 g/ha): 60 | Plant response rating, Wheat (winter) ([2]; Rate 125 g/ha): 60 | Plant response rating, Kochia (kochia (Kochia scoparia); Rate 16 g/ha): 70 | Plant response rating, Kochia (kochia (Kochia scoparia); Rate 31 g/ha): 70 | Plant response rating, Kochia (kochia (Kochia scoparia); Rate 62 g/ha): 70 | Plant response rating, Kochia (kochia (Kochia scoparia); Rate 125 g/ha): 70 | Plant response rating, Galium ([19]; Rate 16 g/ha): 40 | Plant response rating, Galium ([19]; Rate 31 g/ha): 50 | Plant response rating, Galium ([19]; Rate 62 g/ha): 65 | Plant response rating, Galium ([19]; Rate 125 g/ha): 60 | Plant response rating, Redroot pigweed ([20]; Rate 16 g/ha): 45 | Plant response rating, Redroot pigweed ([20]; Rate 31 g/ha): 60 | Plant response rating, Redroot pigweed ([20]; Rate 62 g/ha): 60 | Plant response rating, Redroot pigweed ([20]; Rate 125 g/ha): 70 | Plant response rating, Wild buckwheat ([21]; Rate 16 g/ha): 60 | Plant response rating, Wild buckwheat ([21]; Rate 31 g/ha): 50 | Plant response rating, Wild buckwheat ([21]; Rate 62 g/ha): 70 | Plant response rating, Wild buckwheat ([21]; Rate 125 g/ha): 80 | Plant response rating, Sunflower ([3]; Rate 31 g/ha): 0 | Plant response rating, Sunflower ([3]; Rate 62 g/ha): 0 | Plant response rating, Sunflower ([3]; Rate 125 g/ha): 0 | Plant response rating, Lambsquarters ([4]; Rate 31 g/ha): 90 | Plant response rating, Lambsquarters ([4]; Rate 62 g/ha): 90 | Plant response rating, Lambsquarters ([4]; Rate 125 g/ha): 100
